Test systems include 786-0; CAKI-1; CCRF-CEM; HCT-116; HOP-92; HT-29; Hs-578T; MDA-N; Malme-3M; NCI-H522; NCI/ADR-RES; PC-3; RPMI-8226; SNB-19; T47D; U-251; UACC-62; SR.
Holding throughout (assay): growth of human tumour cells (NCI), 48 h

Structures are written as SMILES.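 Briefly, cells in 96-well plates were exposed to five compound concentrations for 48 h, and endpoints were estimated by linear interpolation. GI50 marks 50% less growth.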 Active and inactive are the calls of the source. Cut-off read from the data, not from the text of the source: active = GI50 up to about 1.1 µM and inactive = higher.

Consider `COC(=O)C(=O)C(C(=O)C(=O)Nc1ccc(C)cc1)c1nc2ccc(C(=O)c3ccccc3)cc2nc1O` (centres undefined), for which the GI50 with 786-0 is > 100 µM (inactive); with CAKI-1, 39.4 µM (inactive); with CCRF-CEM it was 76.4 µM (inactive); in the test with HCT-116, > 100 µM (inactive); in the test on HOP-92, > 100 µM (inactive); with HT-29, 7.83 µM (inactive). Moreover, the GI50 with Hs-578T was 57.3 µM (inactive); with MDA-N it was 43.4 µM (inactive); in the test with Malme-3M it was > 100 µM (inactive); in the test on NCI-H522, 30.5 µM (inactive); in the test on NCI/ADR-RES, 22.5 µM (inactive); in the test on PC-3, 43.7 µM (inactive). Also, the GI50 was > 100 µM (inactive) with RPMI-8226; > 100 µM (inactive) with SNB-19; 79.4 µM (inactive) in the test on T47D; > 100 µM (inactive) in the test with U-251; > 100 µM (inactive) with UACC-62.

For the compound `COc1ccc2ccccc2c1C1NC(=O)c2ccccc2N1` (centres undefined), the GI50 is 1.53 µM (inactive) in the test with 786-0; 2.62 µM (inactive) in the test with CAKI-1; 0.711 µM (active) in the test with CCRF-CEM; 0.614 µM (active) with HCT-116; 14.8 µM (inactive) with HOP-92; 0.873 µM (active) in the test on HT-29. Moreover, the GI50 in the test on Hs-578T was 1.7 µM (inactive); in the test on MDA-N, 0.173 µM (active); with Malme-3M, 0.634 µM (active); in the test on NCI-H522, 1.54 µM (inactive); in the test on NCI/ADR-RES it was 0.507 µM (active); in the test with PC-3, 0.519 µM (active). Besides, the GI50 is 0.659 µM (active) in the test with RPMI-8226; 2.84 µM (inactive) with SNB-19; 12.1 µM (inactive) in the test with T47D; 2.28 µM (inactive) with U-251; 0.455 µM (active) in the test with UACC-62.

Consider `CC(C)OCC1CC(CC(=O)Nc2nncs2)C(=O)O1` (centres undefined), for which the GI50 in the test on 786-0, in the test with CAKI-1, with CCRF-CEM, in the test on HCT-116, in the test with HOP-92 and in the test with HT-29 was > 100 µM (inactive) each time. Also, the GI50 in the test with Hs-578T, in the test on MDA-N, in the test on NCI/ADR-RES, in the test on PC-3, in the test with RPMI-8226 and in the test with SNB-19 was > 100 µM (inactive) in each case. For the same compound, the GI50 in the test with SR, in the test on T47D, in the test with U-251 and in the test on UACC-62 was > 100 µM (inactive) throughout.

Take `CCOC(=O)NNC(=O)NCc1ccccc1CNC(=O)NNC(=O)OCC`: the GI50 in the test with 786-0, with CAKI-1, in the test on CCRF-CEM, in the test on HCT-116, with HT-29 and in the test on Hs-578T was > 100 µM (inactive) in each case. Further, the GI50 in the test with MDA-N, with Malme-3M, with NCI-H522, with NCI/ADR-RES, in the test on PC-3 and in the test on RPMI-8226 was > 100 µM (inactive) each time. Also, the GI50 with SNB-19, in the test with SR, in the test with T47D, in the test on U-251 and with UACC-62 was > 100 µM (inactive) each time.

Regarding `O=C1/C(=C/c2cccc(Oc3ccccc3)c2)N=C(c2ccccc2)N1c1nc2ccc(Sc3ccccc3)cc2[nH]1`, the GI50 is 32.3 µM (inactive) with 786-0; 36.2 µM (inactive) with CAKI-1; 24.6 µM (inactive) with CCRF-CEM; 30.2 µM (inactive) in the test with HCT-116; 58.7 µM (inactive) in the test with HOP-92; 23.5 µM (inactive) in the test with HT-29. The GI50 was 41.3 µM (inactive) with Hs-578T; 16 µM (inactive) in the test with MDA-N; 67.8 µM (inactive) in the test on Malme-3M; 25.2 µM (inactive) with NCI-H522; 20.5 µM (inactive) with NCI/ADR-RES; 29.9 µM (inactive) in the test on PC-3. Also, the GI50 in the test on RPMI-8226 was 20.5 µM (inactive); in the test on SNB-19, 35.5 µM (inactive); with T47D, 23.6 µM (inactive); in the test on U-251, 27.4 µM (inactive); with UACC-62, 23.2 µM (inactive).

As for `Fc1ccc(Nc2nnc(-c3ccccn3)s2)cc1`, the GI50 in the test on 786-0, with CAKI-1, in the test with CCRF-CEM, in the test on HCT-116, with HOP-92 and in the test with HT-29 was > 100 µM (inactive) throughout. The GI50 in the test with Hs-578T, in the test on MDA-N, in the test on Malme-3M, in the test on NCI-H522, with NCI/ADR-RES and with PC-3 was > 100 µM (inactive) throughout. The GI50 in the test on RPMI-8226 is > 100 µM (inactive); in the test with SNB-19 it was > 100 µM (inactive); in the test on T47D, 5.22 µM (inactive); in the test on U-251, > 100 µM (inactive); with UACC-62, > 100 µM (inactive).

Regarding `CCOP(=O)(OCC)C(C)(CC)N/C(=N\C1=NC(C(F)(F)F)(C(F)(F)F)N=C(C(F)(F)F)O1)NC(NC(C)=O)(C(F)(F)F)C(F)(F)F` (centres undefined), the GI50 in the test with 786-0 was 37.3 µM (inactive); in the test on CAKI-1, 42 µM (inactive); with CCRF-CEM, 15.8 µM (inactive); with HCT-116, 33.3 µM (inactive); in the test on HOP-92, 9.95 µM (inactive); in the test with HT-29, 20.7 µM (inactive). In addition, the GI50 in the test with Hs-578T is 31.8 µM (inactive); in the test with MDA-N it was 52.5 µM (inactive); in the test on Malme-3M, 22.1 µM (inactive); in the test on NCI-H522, 27 µM (inactive); with NCI/ADR-RES, 17.9 µM (inactive); in the test on PC-3, 21.2 µM (inactive). Besides, the GI50 in the test on RPMI-8226 is 24.2 µM (inactive); in the test with SNB-19, 60.4 µM (inactive); in the test with T47D, 22.7 µM (inactive); in the test with U-251, 31 µM (inactive); in the test on UACC-62, 35.3 µM (inactive).

In the case of `NC(CCC(=O)O)C(=O)NC(Cc1ccc(N(CCCl)CCCl)cc1)C(=O)O` (centres undefined), the GI50 is > 100 µM (inactive) with 786-0; 81.8 µM (inactive) in the test with CAKI-1; > 100 µM (inactive) with CCRF-CEM; > 100 µM (inactive) in the test with HCT-116; > 100 µM (inactive) in the test on HOP-92; > 100 µM (inactive) with HT-29. Also, the GI50 in the test on Hs-578T, in the test with MDA-N, in the test on Malme-3M, with NCI-H522, in the test on NCI/ADR-RES and with PC-3 was > 100 µM (inactive) throughout. The GI50 with RPMI-8226, in the test with SNB-19, in the test with T47D, in the test on U-251 and in the test with UACC-62 was > 100 µM (inactive) in each case.

`COC(=O)c1ccccc1CC1Cc2cccc(C)c2C1=O` (centres undefined): the GI50 in the test with 786-0 is 47.5 µM (inactive); in the test on CAKI-1 it was 80.2 µM (inactive); in the test on CCRF-CEM it was 36.8 µM (inactive); with HCT-116, 23.8 µM (inactive); in the test on HOP-92, 23.8 µM (inactive); in the test on HT-29 it was 22.9 µM (inactive). The GI50 in the test with Hs-578T is 38.3 µM (inactive); in the test on MDA-N, 36.1 µM (inactive); in the test with Malme-3M it was 19.2 µM (inactive); in the test with NCI-H522, 24.8 µM (inactive); in the test on NCI/ADR-RES it was 32.7 µM (inactive); in the test on PC-3, 24 µM (inactive). In addition, the GI50 in the test with SNB-19 was 52.5 µM (inactive); with T47D, 25.8 µM (inactive); in the test with U-251 it was 33 µM (inactive); in the test with UACC-62, 30.5 µM (inactive).

As for `COC(=O)[C@@H](OC(C)=O)[C@@H](OC(C)=O)c1nnc2ccc(Cl)nn12`, the GI50 in the test on 786-0 is > 100 µM (inactive); with CAKI-1 it was 92 µM (inactive); in the test with CCRF-CEM, > 100 µM (inactive); with HCT-116, > 100 µM (inactive); in the test with HT-29, > 100 µM (inactive); in the test on Hs-578T, > 100 µM (inactive). The GI50 was > 100 µM (inactive) with MDA-N; > 100 µM (inactive) in the test with Malme-3M; 22.2 µM (inactive) with NCI-H522; > 100 µM (inactive) with NCI/ADR-RES; > 100 µM (inactive) with PC-3; 62.2 µM (inactive) in the test on RPMI-8226. Further, the GI50 with SNB-19, with T47D, in the test with U-251 and with UACC-62 was > 100 µM (inactive) each time.

As for `CC(N)(Cc1c[nH]c2ccccc12)C(=O)O` (centres undefined), the GI50 with 786-0, with CAKI-1, in the test with CCRF-CEM, in the test on HCT-116, with HT-29 and in the test with Hs-578T was > 100 µM (inactive) in each case. For the same compound, the GI50 in the test with MDA-N, with Malme-3M, in the test on NCI-H522, in the test with NCI/ADR-RES, in the test with PC-3 and in the test with RPMI-8226 was > 100 µM (inactive) in each case. Besides, the GI50 in the test with SNB-19, in the test on SR, in the test on T47D, with U-251 and with UACC-62 was > 100 µM (inactive) each time.

`O=C(NCCN(CCNC(=O)c1cccc(O)c1O)CCNC(=O)c1cccc(O)c1O)c1cccc(O)c1O` [TRENCAM]: the GI50 with 786-0 is 5.89 µM (inactive); in the test on CAKI-1 it was 21.9 µM (inactive); in the test with HCT-116 it was 4.2 µM (inactive); in the test on HOP-92, 7.53 µM (inactive); in the test on HT-29, 5.31 µM (inactive); in the test with Hs-578T, 29.7 µM (inactive). Also, the GI50 was 9.31 µM (inactive) with MDA-N; 2.51 µM (inactive) in the test on Malme-3M; 0.826 µM (active) in the test with NCI-H522; 49.4 µM (inactive) with NCI/ADR-RES; 11.4 µM (inactive) with PC-3; 5.22 µM (inactive) in the test with SNB-19. The figures for the GI50 in the test on T47D, with U-251 and in the test on UACC-62 were 9.73 µM (inactive), 6.49 µM (inactive) and 4.78 µM (inactive), respectively.
